The text below walks through data of EP4813991A1 (iLeadBMS Co., Ltd., priority 2023, dated 2025).

The subject of one assay is A427 cells. The assay is described as follows: Lung cancer cell proliferation inhibitory activity, A427. Conditions: Homo sapiens, A-427; 72 hours, Cell Counting Kit-8, relative IC50. In kind it is cell-based. As for the experimental part:
Experiments were performed using three types of lung cancer cell lines to measure the cell proliferation inhibitory ability of the compounds of the present invention. NCI-H23 and NCI-H358 cells were dispensed into a 96-well plate at 100 µL of cell suspension per well using RPM11640 medium containing 10 % FBS and 1 % PS, followed by incubation in a cell incubator at 37 °C and 5 % CO2. A427 cells were dispensed into a 96-well plate at 100 µL of cell suspension per well using DMEM medium containing 10 % FBS and 1 % PS, followed by incubation in a cell incubator at 37 °C and 5 % CO2. The next day, each Example compound (such as Example 8) dissolved and diluted in DMSO across 10 concentration ranges and a DMSO control group were treated on the cells for 72 hours. After completion of the compound treatment, 10 µL of Cell Counting Kit-8 (Dojindo) reagent was added to each well of the 96-well plate, followed by incubation for 2 hours. After inserting the 96-well plate into an Envision plate reader […], luminescence signals were measured. Relative IC50 values were calculated by fitting a dose-response curve using Graphpad PRISM software.
The lung cancer cell proliferation inhibitory activities of the Example compounds measured by the method described above were evaluated according to the following criteria, and the results are presented in Table 17.
A general note: Tetrazolium assays rely on reduction of a dye to a coloured formazan, in cell work by metabolically active cells.

A further assay deals with NCI-N87. In words: Gastric cancer cell proliferation inhibitory activity (Cell Counting Kit-8), NCI-N87. In kind it is cell-based. To be noted: Homo sapiens, 72 hours, Cell Counting Kit-8, relative IC50. The protocol:
Experiments were performed using six types of gastric cancer cell lines to measure the cell proliferation inhibitory ability of each Example compound. NCI-N87, SNU601, KATO-III, MKN1, and AGS cells were dispensed into a 96-well plate at 100 µL of cell suspension per well using RPMI1640 medium containing 10 % FBS and 1 % PS, followed by incubation in a cell incubator at 37 °C and 5 % CO2. HS746T cells were dispensed into a 96-well plate at 100 µL of cell suspension per well using DMEM medium containing 10 % FBS and 1 % PS, followed by incubation in a cell incubator at 37 °C and 5 % CO2. The next day, each Example compound dissolved and diluted in DMSO across 10 concentration ranges and a DMSO control group were treated on the cells for 72 hours. After completion of the compound treatment, 10 µL of Cell Counting Kit-8 (Dojindo) reagent was added to each well of the 96-well plate, followed by incubation for 2 hours. […] were measured after inserting the 96-well plate into an Envision plate reader […]. Relative IC50 values were calculated by fitting a dose-response curve using Graphpad PRISM software.
The gastric cancer cell proliferation inhibitory activities of the Example compounds measured by the method described above were evaluated according to the following criteria, and the results are presented in Table 20.

Structures are written as SMILES. Where only a bound is given, the exact number is not on record here.

Take `CN1CCN(c2cc(NCc3nc4ccc(F)c(F)c4[nH]3)c3ncc(C(F)(F)F)n3n2)CC1` [Example 8, N-((6,7-difluoro-1H-benzo[d]imidazol-2-yl)methyl)-6-(4-methylpiperazin-1-yl)-3-(trifluoromethyl)imidazo[1,2-b]pyridazin-8-amine]: the IC50 in the assay on A427 cells and in the assay with NCI-N87 was at most 200 nM in each case.
